Measurements: ChEMBL document CHEMBL1201862, “PubChem BioAssay data set” (2004)
Activity calls are given as the source filed them.

How the values were obtained:
Assay type in all cases: functional
[1] = target: Protein kinase C delta type (Homo sapiens, UniProt Q05655)
[2] = target: ALK tyrosine kinase receptor (Homo sapiens, UniProt Q9UM73);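 also: ALK tested as one member of a kinase panel screen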
[3] = target: Serine/threonine-protein kinase D2 (Homo sapiens, UniProt Q9BZL6);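 also: measured against PRKD2 as one member of a kinome-wide kinase profiling panel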
[4] = target: Ribosomal protein S6 kinase beta-1 (Homo sapiens, UniProt P23443);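 also: measured as one member of a kinome-wide profiling panel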
[5] = target: Calcium/calmodulin-dependent protein kinase type II subunit gamma (Homo sapiens, UniProt Q13555)
[6] = target: Serine/threonine-protein kinase D3 (Homo sapiens, UniProt O94806);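 also: determined within a kinase panel screen, with PRKCN as the panel member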
Chain of Serine/threonine-protein kinase D3 (O94806 whole entry): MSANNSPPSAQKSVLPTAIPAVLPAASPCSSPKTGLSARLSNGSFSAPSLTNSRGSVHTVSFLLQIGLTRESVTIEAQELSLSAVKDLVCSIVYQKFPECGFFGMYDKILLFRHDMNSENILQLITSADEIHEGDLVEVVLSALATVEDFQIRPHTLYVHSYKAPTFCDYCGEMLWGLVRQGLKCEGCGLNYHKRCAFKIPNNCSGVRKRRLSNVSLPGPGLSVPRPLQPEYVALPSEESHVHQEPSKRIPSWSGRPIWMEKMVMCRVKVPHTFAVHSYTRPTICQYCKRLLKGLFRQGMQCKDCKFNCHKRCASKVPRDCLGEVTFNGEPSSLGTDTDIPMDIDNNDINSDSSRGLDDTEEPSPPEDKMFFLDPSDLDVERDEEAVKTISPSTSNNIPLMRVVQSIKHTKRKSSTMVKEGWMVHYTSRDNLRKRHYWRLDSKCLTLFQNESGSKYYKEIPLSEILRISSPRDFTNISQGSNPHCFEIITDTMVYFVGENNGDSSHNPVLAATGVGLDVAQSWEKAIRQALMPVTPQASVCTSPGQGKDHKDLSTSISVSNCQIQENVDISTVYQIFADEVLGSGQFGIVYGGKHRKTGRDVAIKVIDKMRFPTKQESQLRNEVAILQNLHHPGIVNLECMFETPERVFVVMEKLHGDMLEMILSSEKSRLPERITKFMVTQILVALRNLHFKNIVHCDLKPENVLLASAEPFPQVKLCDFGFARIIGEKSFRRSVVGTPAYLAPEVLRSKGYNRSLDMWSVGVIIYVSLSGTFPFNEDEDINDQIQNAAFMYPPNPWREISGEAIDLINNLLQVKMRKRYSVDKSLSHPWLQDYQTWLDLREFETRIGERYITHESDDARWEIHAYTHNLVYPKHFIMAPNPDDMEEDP

Activin receptor type-1 = Activin receptor type-1 (Homo sapiens, UniProt Q04771); assay: Navigating the Kinome. Panel member name: ACVR1
Chain of Activin receptor type-1 (Q04771 whole entry): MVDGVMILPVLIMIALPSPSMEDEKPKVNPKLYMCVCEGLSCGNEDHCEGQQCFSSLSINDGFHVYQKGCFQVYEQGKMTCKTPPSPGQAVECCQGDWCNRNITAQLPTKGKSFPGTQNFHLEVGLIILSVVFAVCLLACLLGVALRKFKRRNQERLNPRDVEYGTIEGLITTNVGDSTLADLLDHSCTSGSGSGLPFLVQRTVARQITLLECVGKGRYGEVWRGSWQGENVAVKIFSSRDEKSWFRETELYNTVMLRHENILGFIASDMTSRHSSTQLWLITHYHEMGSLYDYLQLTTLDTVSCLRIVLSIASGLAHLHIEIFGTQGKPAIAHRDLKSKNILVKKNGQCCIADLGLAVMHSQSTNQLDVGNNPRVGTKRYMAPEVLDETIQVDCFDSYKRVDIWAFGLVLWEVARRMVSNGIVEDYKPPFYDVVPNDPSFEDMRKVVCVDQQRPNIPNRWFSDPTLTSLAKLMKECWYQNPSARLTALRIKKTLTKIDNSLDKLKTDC

[7] = target: Cyclin-dependent kinase 2 (Homo sapiens, UniProt P24941);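 also: CDK2 measured as one member of a broad kinome profiling panel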
[8] = target: Serine/threonine-protein kinase PAK 4 (Homo sapiens, UniProt O96013);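 also: value obtained within a kinome profiling panel in which PAK4 was one of the panel members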
Chain of Serine/threonine-protein kinase PAK 4 (O96013 whole entry): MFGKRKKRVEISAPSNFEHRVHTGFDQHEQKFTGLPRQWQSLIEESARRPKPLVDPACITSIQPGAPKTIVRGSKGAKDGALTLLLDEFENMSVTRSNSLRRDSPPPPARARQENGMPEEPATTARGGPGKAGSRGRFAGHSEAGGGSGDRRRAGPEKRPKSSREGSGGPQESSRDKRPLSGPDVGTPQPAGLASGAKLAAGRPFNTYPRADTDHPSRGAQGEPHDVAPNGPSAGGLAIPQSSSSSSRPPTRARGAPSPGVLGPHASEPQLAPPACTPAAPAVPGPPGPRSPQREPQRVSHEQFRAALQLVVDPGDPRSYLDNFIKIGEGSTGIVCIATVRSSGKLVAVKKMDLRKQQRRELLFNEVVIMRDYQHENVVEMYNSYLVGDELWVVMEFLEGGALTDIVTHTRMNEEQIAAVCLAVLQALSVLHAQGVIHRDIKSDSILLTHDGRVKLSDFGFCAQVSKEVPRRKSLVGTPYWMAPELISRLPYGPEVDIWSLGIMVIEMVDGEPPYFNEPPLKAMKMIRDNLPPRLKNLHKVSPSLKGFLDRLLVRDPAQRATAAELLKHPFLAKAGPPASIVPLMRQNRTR

[9] = target: Serine/threonine-protein kinase PAK 1 (Homo sapiens, UniProt Q13153)
Chain of Serine/threonine-protein kinase PAK 1 (Q13153 whole entry): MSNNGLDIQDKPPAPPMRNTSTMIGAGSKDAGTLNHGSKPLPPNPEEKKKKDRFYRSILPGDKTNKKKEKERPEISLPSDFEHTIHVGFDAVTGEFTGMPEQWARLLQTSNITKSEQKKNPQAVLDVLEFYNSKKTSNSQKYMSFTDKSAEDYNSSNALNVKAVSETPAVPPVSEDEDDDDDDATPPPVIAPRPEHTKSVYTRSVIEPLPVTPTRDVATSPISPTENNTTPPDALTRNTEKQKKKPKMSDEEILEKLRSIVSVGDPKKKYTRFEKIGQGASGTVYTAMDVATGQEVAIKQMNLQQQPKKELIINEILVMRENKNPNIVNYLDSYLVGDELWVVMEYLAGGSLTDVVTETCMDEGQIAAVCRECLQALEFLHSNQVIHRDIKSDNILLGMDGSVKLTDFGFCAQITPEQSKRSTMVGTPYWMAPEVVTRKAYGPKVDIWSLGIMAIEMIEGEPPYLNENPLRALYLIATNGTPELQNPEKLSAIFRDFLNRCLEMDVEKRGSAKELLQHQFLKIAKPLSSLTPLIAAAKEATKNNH

[10] = target: Fibroblast growth factor receptor 1 (Homo sapiens, UniProt P11362)
Chain of Fibroblast growth factor receptor 1 (P11362 whole entry, canonical isoform): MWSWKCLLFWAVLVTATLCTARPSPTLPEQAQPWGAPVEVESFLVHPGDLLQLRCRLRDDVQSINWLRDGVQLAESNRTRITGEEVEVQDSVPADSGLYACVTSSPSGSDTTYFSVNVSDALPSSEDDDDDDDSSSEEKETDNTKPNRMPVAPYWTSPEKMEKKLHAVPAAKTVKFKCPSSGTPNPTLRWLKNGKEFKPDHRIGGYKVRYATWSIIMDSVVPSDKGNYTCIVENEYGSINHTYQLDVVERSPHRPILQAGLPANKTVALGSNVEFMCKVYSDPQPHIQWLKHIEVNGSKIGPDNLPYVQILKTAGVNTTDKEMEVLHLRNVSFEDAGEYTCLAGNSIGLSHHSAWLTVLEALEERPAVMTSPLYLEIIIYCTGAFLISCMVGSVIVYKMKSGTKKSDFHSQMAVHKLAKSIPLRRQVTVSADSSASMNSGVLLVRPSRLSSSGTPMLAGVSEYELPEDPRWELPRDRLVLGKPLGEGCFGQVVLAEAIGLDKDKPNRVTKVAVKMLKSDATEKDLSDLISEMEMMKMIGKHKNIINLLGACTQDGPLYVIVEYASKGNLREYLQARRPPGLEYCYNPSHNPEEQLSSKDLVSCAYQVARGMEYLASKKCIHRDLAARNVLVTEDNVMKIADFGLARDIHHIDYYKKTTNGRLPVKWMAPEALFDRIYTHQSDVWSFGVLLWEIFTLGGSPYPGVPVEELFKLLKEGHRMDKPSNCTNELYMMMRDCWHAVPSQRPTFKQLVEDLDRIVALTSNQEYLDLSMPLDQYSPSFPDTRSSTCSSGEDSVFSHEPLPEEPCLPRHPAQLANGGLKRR

[11] = target: Casein kinase I isoform gamma-1 (Homo sapiens, UniProt Q9HCP0);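 also: measured as the CSNK1G1 member of a kinome profiling panel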
Chain of Casein kinase I isoform gamma-1 (Q9HCP0 whole entry, canonical isoform): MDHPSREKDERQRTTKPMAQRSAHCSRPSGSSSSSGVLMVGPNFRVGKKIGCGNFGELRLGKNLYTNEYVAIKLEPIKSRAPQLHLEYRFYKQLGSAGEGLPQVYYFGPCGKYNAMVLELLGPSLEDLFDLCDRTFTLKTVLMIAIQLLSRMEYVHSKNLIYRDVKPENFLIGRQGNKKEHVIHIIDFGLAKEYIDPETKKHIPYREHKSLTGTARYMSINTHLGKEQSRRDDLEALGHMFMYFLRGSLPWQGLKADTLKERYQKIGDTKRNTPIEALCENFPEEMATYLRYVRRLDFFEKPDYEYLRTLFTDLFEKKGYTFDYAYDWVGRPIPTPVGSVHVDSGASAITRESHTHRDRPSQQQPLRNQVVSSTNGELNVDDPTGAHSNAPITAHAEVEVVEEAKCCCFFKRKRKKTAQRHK

Insulin receptor = Insulin receptor (Homo sapiens, UniProt P06213);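 also: insulin receptor kinase tested as one member of a kinome-wide kinase panel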
[12] = target: Mitogen-activated protein kinase kinase kinase 20 (Homo sapiens, UniProt Q9NYL2)
[13] = target: Non-receptor tyrosine-protein kinase TYK2 (Homo sapiens, UniProt P29597)
[14] = target: Protein kinase C gamma type (Homo sapiens, UniProt P05129)
[15] = target: Glycogen synthase kinase-3 alpha (Homo sapiens, UniProt P49840);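 also: GSK3A result taken from a broad kinome-wide kinase panel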
[16] = target: G protein-coupled receptor kinase 5 (Homo sapiens, UniProt P34947); assay: Navigating the Kinome. Panel member name: GPRK5
Chain of G protein-coupled receptor kinase 5 (P34947 whole entry): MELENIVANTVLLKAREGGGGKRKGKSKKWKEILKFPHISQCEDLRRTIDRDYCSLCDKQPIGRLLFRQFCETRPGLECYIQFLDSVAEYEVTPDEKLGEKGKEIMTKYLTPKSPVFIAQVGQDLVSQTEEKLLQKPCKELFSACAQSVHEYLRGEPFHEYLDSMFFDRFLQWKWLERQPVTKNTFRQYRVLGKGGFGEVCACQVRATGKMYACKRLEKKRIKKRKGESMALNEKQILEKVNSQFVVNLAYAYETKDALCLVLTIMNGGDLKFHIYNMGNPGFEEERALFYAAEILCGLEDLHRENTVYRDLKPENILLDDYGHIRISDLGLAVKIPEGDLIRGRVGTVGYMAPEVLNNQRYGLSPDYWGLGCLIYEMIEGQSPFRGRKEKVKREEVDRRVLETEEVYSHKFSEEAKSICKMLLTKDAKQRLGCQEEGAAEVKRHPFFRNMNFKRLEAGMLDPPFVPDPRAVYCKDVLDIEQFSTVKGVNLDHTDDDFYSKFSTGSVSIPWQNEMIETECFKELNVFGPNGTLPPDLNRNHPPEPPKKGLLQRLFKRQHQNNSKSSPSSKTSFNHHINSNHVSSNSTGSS

[17] = target: Protein kinase C iota type (Homo sapiens, UniProt P41743);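 also: measured within a kinome-wide kinase panel, PRKCI as panel member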
Aurora kinase B = Aurora kinase B (Homo sapiens, UniProt Q96GD4)
[18] = target: Vascular endothelial growth factor receptor 3 (Homo sapiens, UniProt P35916);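 also: value from a kinome-wide profiling panel, with FLT4 as the panel member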
[19] = target: Rho-associated protein kinase 1 (Homo sapiens, UniProt Q13464);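 also: measured within a broad kinome-wide panel profiling many kinases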
[20] = target: Homeodomain-interacting protein kinase 4 (Homo sapiens, UniProt Q8NE63)
[21] = target: Serine/threonine-protein kinase Nek2 (Homo sapiens, UniProt P51955)
[22] = target: Cyclin-dependent kinase 7 (Homo sapiens, UniProt P50613);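 also: value comes from a kinome-wide kinase profiling panel in which CDK7 is one member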
[23] = target: STE20-like serine/threonine-protein kinase (Homo sapiens, UniProt Q9H2G2)
[24] = target: Serine/threonine-protein kinase PLK1 (Homo sapiens, UniProt P53350);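 also: PLK1 measured as one member of a kinome-wide profiling panel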
[25] = target: Glycogen synthase kinase-3 beta (Homo sapiens, UniProt P49841);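 also: value comes from a broad kinome profiling panel, with GSK3B as the panel member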
[26] = target: Mitogen-activated protein kinase 12 (Homo sapiens, UniProt P53778);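 also: measured as one member of a kinome-wide kinase profiling panel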
[27] = target: Calcium/calmodulin-dependent protein kinase type II subunit alpha (Homo sapiens, UniProt Q9UQM7); assay: Navigating the Kinome. Panel member name: CAMK2A
Chain of Calcium/calmodulin-dependent protein kinase type II subunit alpha (Q9UQM7 whole entry): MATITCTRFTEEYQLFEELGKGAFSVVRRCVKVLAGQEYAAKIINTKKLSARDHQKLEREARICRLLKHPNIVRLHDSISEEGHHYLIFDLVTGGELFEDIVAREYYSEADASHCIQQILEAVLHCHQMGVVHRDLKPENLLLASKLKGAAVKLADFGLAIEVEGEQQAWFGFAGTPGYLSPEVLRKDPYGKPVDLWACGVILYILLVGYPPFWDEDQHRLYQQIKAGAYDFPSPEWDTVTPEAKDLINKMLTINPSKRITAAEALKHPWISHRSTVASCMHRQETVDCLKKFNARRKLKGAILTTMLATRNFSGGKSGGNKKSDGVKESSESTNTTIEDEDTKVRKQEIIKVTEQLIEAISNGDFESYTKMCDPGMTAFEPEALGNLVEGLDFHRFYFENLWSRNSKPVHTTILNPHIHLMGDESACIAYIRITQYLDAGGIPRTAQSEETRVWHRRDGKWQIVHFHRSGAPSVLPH

Ki [1]: > 7.94 µM (inactive) | Ki [2]: > 6.31 µM (inactive) | Ki [3]: > 10 µM (inactive) | Ki [4]: > 6.31 µM (inactive) | Ki [5]: > 6.31 µM (inactive) | Ki [6]: > 6.31 µM (inactive) | Ki (Activin receptor type-1): > 3.98 µM (inactive) | Ki [7]: > 7.94 µM (inactive) | Ki [8]: > 5.01 µM (inactive) | Ki [9]: > 10 µM (inactive) | Ki [10]: > 3.98 µM (inactive) | Ki [11]: > 6.31 µM (inactive) | Ki (Insulin receptor): > 5.01 µM (inactive) | Ki [12]: > 7.94 µM (inactive) | Ki [13]: 1.58 µM (active) | Ki [14]: > 7.94 µM (inactive) | Ki [15]: > 7.94 µM (inactive) | Ki [16]: > 3.98 µM (inactive) | Ki [17]: > 5.01 µM (inactive) | Ki (Aurora kinase B): > 6.31 µM (inactive) | Ki [18]: > 6.31 µM (inactive) | Ki [19]: > 6.31 µM (inactive) | Ki [20]: > 7.94 µM (inactive) | Ki [21]: > 10 µM (inactive) | Ki [22]: > 3.98 µM (inactive) | Ki [23]: > 10 µM (inactive) | Ki [24]: > 7.94 µM (inactive) | Ki [25]: > 5.01 µM (inactive) | Ki [26]: > 6.31 µM (inactive) | Ki [27]: > 7.94 µM (inactive)
Compound: NNc1cc(N2CCOCC2)nc(OCCc2ccccn2)n1
